Data taken from patent publication US9242941B2, “Alkyl, fluoroalkyl-1,4-benzodiazepinone compounds” (BRISTOL-MYERS SQUIBB COMPANY, priority 2012, dated 2016).
pIC50: −log10 of the molar value.

Key:
human Notch 1 = test: Notch-CBF1 Transactivation Assay (Notch 1); format: cell-based; conditions: read-out: Notch 1 IC50; Notch-CBF1 transactivation luciferase assay in transfected HeLa cells; some values are an average of N experiments
From the text: (§1) Notch-CBF1 Transactivation Assay
(§2) The Notch-CBF1 (C-promoter binding factor I) cell based transactivation assay is based on the ability of the released Notch intracellular domain fragments (NICDs) to function as transcription factors in conjunction with CBF1 and other nuclear factors. Luciferase assays were used to measure the antagonism of Notch-CBF1 transcriptional activity. HeLa cervical cancer cells are transiently co-transfected with pCDNA3.1/Hygro plasmids containing truncated Notch 1, Notch 2, Notch 3, or Notch 4 receptors and a PGL3 luciferase reporter vector containing 4 copies of CBF1 binding site. The cells were then tested for Notch-CBF1 activity in the absence or presence of test compounds. HeLa cells, maintained in DMEM (high glucose with HEPES), 1× glutamine/penicillin/streptomycin and 10% Fetal Bovine serum, were transiently transfected in a T175 Flask (4.5×10^6 cells/flask) using the Monster Transfection Kit (Minis #MIR2906) according to manufacturers specifications. Table 13 denotes respective DNA quantity for the transfections.
(§3) Assay media (5 μL) containing test compounds in final concentrations ranging from 5 μM to 8.4×10^−5 μM (3 fold serial dilutions) were added to the cells and the cell plates were then incubated for 18 hours at 37° C. and 5% CO2. Control wells contained DMSO vehicle (total counts) or 0.5 μM of an in-house small molecule inhibitor (background counts). Duplicates were used for each sample. Luciferase activity was measured after a 20-minute incubation with 50 μl STEADY-GLO® luciferase reagents according to manufacturer's specifications (Promega, Cat. #E2550) and analyzed by Envision plate reader (PerkinElmer, Boston, Mass.).
(§4) The antagonist effect of compounds was expressed as 100×[1−(average sample−average background)/(average total−average background)] where sample is the luciferase activity in the presence of test compound, background is equal to the luciferase activity in the presence of the small molecule inhibitor control and the total is signal induced in DMSO wells.

human Notch 3 = test: Notch-CBF1 Transactivation Assay (Notch 3); format: cell-based; conditions: read-out: Notch 3 IC50; Notch-CBF1 transactivation luciferase assay in transfected HeLa cells; some values are an average of N experiments
From the text: as §1, §2, §3, §4

[1] = human metabolic stability half-life assay; conditions: microsomes, human liver microsomes
Description: Metabolic Stability Half-Life Panel
Incubation with Liver Microsomes

[2] = pH 7.4, CYP-mediated metabolic stability half life, NADPH-dependent
[3] = pH 7.4, HLM (t1/2, min), CYP-mediated (NADPH-dependent), 0.5 μM compound, 45 min time course, some values are an average of N experiments

Compound	pIC50 (human Notch 1)	pIC50 (human Notch 3)	half-life at 0.5 µM [1, 2] [min]	half-life at 0.5 µM [1, 3] [min]
NC(=O)[C@@H](CC1CC1)[C@@H](CCC(F)(F)F)C(=O)N[C@H]1N=C(c2cccc(Cl)c2)c2cccc(F)c2NC1=O [Example 24, (2R,3S)—N-((3S)-5-(3-Chlorophenyl)-9-fluoro-2-oxo-2,3-dihydro-1H-1,4-benzodiazepin-3-yl)-3-(cyclopropylmethyl)-2-(3,3,3-trifluoropropyl)succinamide]	8.43	8.57	≥ 30	76
NC(=O)[C@@H](CC1CC1)[C@@H](CCC(F)(F)F)C(=O)N[C@H]1N=C(c2ccccc2)c2cccc(OC3CC3)c2NC1=O [Example 6, (2R,3S)-3-(Cyclopropylmethyl)-N-((3S)-9-(cyclopropyloxy)-2-oxo-5-phenyl-2,3-dihydro-1H-1,4-benzodiazepin-3-yl)-2-(3,3,3-trifluoropropyl)succinamide]	8.14	8.07	≥ 30	83
Cc1cc(F)cc(C2=N[C@H](NC(=O)[C@H](CCC(F)(F)F)[C@H](CC3CC3)C(N)=O)C(=O)Nc3c(Cl)cccc32)c1 [Example 3, (2R,3S)—N-((3S)-9-Chloro-5-(3-fluoro-5-methylphenyl)-2-oxo-2,3-dihydro-1H-benzo[e][1,4]diazepin-3-yl)-3-(cyclopropylmethyl)-2-(3,3,3-trifluoropropyl)succinamide]	8.29	8.12	≥ 30	77
CCC[C@H](C(N)=O)[C@@H](CCC(F)(F)F)C(=O)N[C@H]1N=C(c2ccccc2)c2ccc(Br)c(OC)c2NC1=O [Example 39, (2R,3S)—N-((3S)-8-Bromo-9-methoxy-2-oxo-5-phenyl-2,3-dihydro-1H-1,4-benzodiazepin-3-yl)-3-propyl-2-(3,3,3-trifluoropropyl)succinamide]	7.87	7.92	≥ 30	38
CCC[C@H](C(N)=O)[C@@H](CCC(F)(F)F)C(=O)N[C@H]1N=C(c2ccccc2)c2cccc(Cl)c2NC1=O [Example 43, (2R,3S)—N-((3S)-9-Chloro-2-oxo-5-phenyl-2,3-dihydro-1H-1,4-benzodiazepin-3-yl)-3-propyl-2-(3,3,3-trifluoropropyl)succinamide]	8.48	8.32	≥ 30	30
C=CC[C@H](C(N)=O)[C@@H](CC(C)C)C(=O)N[C@H]1N=C(c2ccccc2)c2ccccc2N(CCC)C1=O [Comparative Compound 59, reference compound]			≤ 9	
COc1cccc2c1NC(=O)[C@@H](NC(=O)[C@H](CCC(F)(F)F)[C@H](CC1CC1)C(N)=O)N=C2c1cccc(C)c1 [Example 31, (2R,3S)-3-(Cyclopropylmethyl)-N-((3S)-9-methoxy-5-(3-methylphenyl)-2-oxo-2,3-dihydro-1H-1,4-benzodiazepin-3-yl)-2-(3,3,3-trifluoropropyl)succinamide]	8.25	8.10	≥ 30	52
NC(=O)[C@@H](CC1CC1)[C@@H](CCC(F)(F)F)C(=O)N[C@H]1N=C(c2cccc(F)c2)c2cccc(F)c2NC1=O [Example 23, (2R,3S)-3-(Cyclopropylmethyl)-N-((3S)-9-fluoro-5-(3-fluorophenyl)-2-oxo-2,3-dihydro-1H-1,4-benzodiazepin-3-yl)-2-(3,3,3-trifluoropropyl)succinamide]	8.32	8.10	≥ 30	69
COc1ccc2c(c1F)NC(=O)[C@@H](NC(=O)[C@H](CCC(F)(F)F)[C@H](CC1CC1)C(N)=O)N=C2c1ccccc1 [Example 29, (2R,3S)-3-(Cyclopropylmethyl)-N-((3S)-9-fluoro-8-methoxy-2-oxo-5-phenyl-2,3-dihydro-1H-1,4-benzodiazepin-3-yl)-2-(3,3,3-trifluoropropyl)succinamide]	8.51	8.15	≥ 30	99
Cc1ccccc1C1=N[C@H](NC(=O)[C@H](CCC(F)(F)F)[C@H](CC2CC2)C(N)=O)C(=O)Nc2c(Cl)cccc21 [Example 13, (2R,3S)—N-((3S)-9-Chloro-5-(2-methylphenyl)-2-oxo-2,3-dihydro-1H-1,4-benzodiazepin-3-yl)-3-(cyclopropylmethyl)-2-(3,3,3-trifluoropropyl)succinamide]	8.54	8.29	≥ 30	> 120
Cc1cccc2c1NC(=O)[C@@H](NC(=O)[C@H](CCC(F)(F)F)[C@H](CC1CC1)C(N)=O)N=C2c1ccccc1 [Example 11, (2R,3S)-3-(Cyclopropylmethyl)-N-((3S)-9-methyl-2-oxo-5-phenyl-2,3-dihydro-1H-1,4-benzodiazepin-3-yl)-2-(3,3,3-trifluoropropyl)succinamide]	8.40	8.06	≥ 30	76
NC(=O)[C@@H](CC1CC1)[C@@H](CCC(F)(F)F)C(=O)N[C@H]1N=C(c2ccccc2)c2cccc(C(F)(F)F)c2NC1=O [Example 36, (2R,3S)-3-(Cyclopropylmethyl)-N-((3S)-2-oxo-5-phenyl-9-(trifluoromethyl)-2,3-dihydro-1H-1,4-benzodiazepin-3-yl)-2-(3,3,3-trifluoropropyl)succinamide]	8.10	8.08	≥ 30	> 120
Cc1cccc(C2=N[C@H](NC(=O)[C@H](CCC(F)(F)F)[C@H](CC3CC3)C(N)=O)C(=O)Nc3c(Cl)cccc32)c1 [Example 30, (2R,3S)—N-((3S)-9-Chloro-5-(3-methylphenyl)-2-oxo-2,3-dihydro-1H-1,4-benzodiazepin-3-yl)-3-(cyclopropylmethyl)-2-(3,3,3-trifluoropropyl)succinamide]	8.60	8.28	≥ 30	74
CCC[C@H](C(N)=O)[C@@H](CCC(F)(F)F)C(=O)N[C@H]1N=C(c2ccc(Cl)cc2)c2cccc(OC)c2NC1=O [Example 25, (2R,3S)—N-((3S)-5-(4-Chlorophenyl)-9-methoxy-2-oxo-2,3-dihydro-1H-1,4-benzodiazepin-3-yl)-3-propyl-2-(3,3,3-trifluoropropyl)succinamide]	8.17	8.25	≥ 30	31
CN1C(=O)[C@@H](NC(=O)[C@H](CCC(F)(F)F)[C@H](CC2CC2)C(N)=O)N=C(c2ccccc2)c2cccc(F)c21 [Example 20, (2R,3S)-3-(Cyclopropylmethyl)-N-((3S)-9-fluoro-1-methyl-2-oxo-5-phenyl-2,3-dihydro-1H-1,4-benzodiazepin-3-yl)-2-(3,3,3-trifluoropropyl)succinamide]	8.47	8.04	≥ 30	106
Cc1ccc(C2=N[C@H](NC(=O)[C@H](CCC(F)(F)F)[C@H](CC3CC3)C(N)=O)C(=O)Nc3c(F)cccc32)cc1 [Example 16, (2R,3S)-3-(Cyclopropylmethyl)-N-((3S)-9-fluoro-5-(4-methylphenyl)-2-oxo-2,3-dihydro-1H-1,4-benzodiazepin-3-yl)-2-(3,3,3-trifluoropropyl)succinamide]	8.42	7.80	≥ 30	75
Cc1cccc2c1NC(=O)[C@@H](NC(=O)[C@H](CCC(F)(F)F)[C@H](CC1CC1)C(N)=O)N=C2c1cccc(C(F)(F)F)c1 [Example 9, (2R,3S)-3-(Cyclopropylmethyl)-N-((3S)-9-methyl-2-oxo-5-(3-(trifluoromethyl)phenyl)-2,3-dihydro-1H-1,4-benzodiazepin-3-yl)-2-(3,3,3-trifluoropropyl)succinamide]	8.74	8.31	≥ 30	90
C=CC[C@H](C(N)=O)[C@@H](CC(C)C)C(=O)N[C@H]1N=C(c2ccccc2)c2cc(Cl)ccc2N(C)C1=O [Comparative Compound 57, reference compound]			≤ 9	
CCCC[C@H](C(N)=O)[C@@H](CC(C)C)C(=O)N[C@H]1N=C(c2ccc(Cl)cc2)c2ccccc2N(C)C1=O [Comparative Compound 58, reference compound]			≤ 9	
